Drawing on US8293891B2, “4 (pyrrolopyridinyl)pyrimidin-2-ylamine derivatives” (Merck Patent Gesellschaft mit Beschrankter Haftung, priority 2007, dated 2012), this text covers IC50 for four compounds.

Assay type in all cases: cell-based
The subject of test [1] is PC3 (prostate). Description: Inhibition of the proliferation/vitality of tumour cells (Alamar Blue), PC3. Particulars: Prostate cell, 96 h, 4 days cultivation. The procedure:
(§1) The cells are sown in a suitable cell density in microtitre plates (96-well format) and the test substances are added in the form of a concentration series. After four further days of cultivation in serum-containing medium, the tumour cell proliferation/tumour cell vitality can be determined by means of an Alamar Blue test system.
(§2) The cells are cultivated in medium. At intervals of several days, the cells are detached from the culture dishes with the aid of trypsin solution and sown in suitable dilution in fresh medium. The cells are cultivated at 37° Celsius and 10% CO2. […]
(§3) In each case, 20 μl of Alamar Blue reagent are added per well, and the microtitre plates are incubated, for example, for a further seven hours in a CO2 incubator (at 37° C. and 10% CO2). The plates are measured in a reader with a fluorescence filter at a wavelength of 540 nm. […]
(§4) The absorbance value of the medium control (no cells and test substances used) is subtracted from all other absorbance values. The controls (cells without test substance) are set equal to 100 per cent, and all other absorbance values are set in relation thereto (for example in % of control):
(§5) IC50 values (50% inhibition) are determined with the aid of statistics programs, such as, for example, RS1.

Test [2] concerns MCF7 (breast). In words: Inhibition of the proliferation/vitality of tumour cells (Alamar Blue), MCF7. Particulars: Homo sapiens, 96 h, 4 days cultivation. The procedure: as §1, §2, §3, §4, §5
The test system of test [3] is Colo205 (intestine). In words: Inhibition of the proliferation/vitality of tumour cells (Alamar Blue), Colo205. Particulars: Homo sapiens, COLO 205, 96 h, 4 days cultivation. The procedure: as §1, §2, §3, §4, §5
The subject of test [4] is A2780 (ovary). In words: Inhibition of the proliferation/vitality of tumour cells (Alamar Blue), A2780. Particulars: Homo sapiens, 96 h, 4 days cultivation. The procedure: as §1
The cells are cultivated in medium. At intervals of several days, the cells are detached from the culture dishes with the aid of trypsin solution and sown in suitable dilution in fresh medium. The cells are cultivated at 37° Celsius and 10% CO2.
A defined number of cells (for example 2000 cells) per culture/well in a volume of 180 μl of culture medium are sown in microtitre plates (96 well cell-culture plates) using a multichannel pipette. The cells are subsequently cultivated in a CO2 incubator (37° C. and 10% CO2).
The test substances are dissolved, for example, in DMSO and subsequently employed in corresponding concentration (if desired in a dilution series) in the cell culture medium. The dilution steps can be adapted depending on the efficiency of the active ingredients and the desired spread of the concentrations. Cell culture medium is added to the test substances in corresponding concentrations. The addition of the test substances to the cells can take place on the same day as the sowing of the cells. To this end, in each case 20 μl of substance solution from the predilution plate are added to the cultures/wells. The cells are cultivated for a further 4 days at 37° Celsius and 10% CO2.
In each case, 20 μl of Alamar Blue reagent are added per well, and the microtitre plates are incubated, for example, for a further seven hours in a CO2 incubator (at 37° C. and 10% CO2). The plates are measured in a reader with a fluorescence filter at a wavelength of 540 nm. The plates can be shaken gently immediately before the measurement.
as §4, §5

The structures appear in SMILES notation.

`c1ccc(Nc2nccc(-c3c[nH]c4ccncc34)n2)cc1` [Compound A1, phenyl[4-(1H-pyrrolo[3,2-c]pyridin-3-yl)pyrimidin-2-yl]-amine]: the IC50 in test [1], in test [2], in test [3] and in test [4] was 0.01 to 1 µM throughout.

With `Fc1cccc(Nc2nccc(-c3c[nH]c4ccncc34)n2)c1` [Compound A7], the IC50 in test [4] was 0.01 to 1 µM.

With `COc1ccc(Nc2nccc(-c3c[nH]c4ccncc34)n2)cc1` [Compound A8], the IC50 in test [4] is 1 to 10 µM.

As for `Cc1ccccc1Nc1nccc(-c2c[nH]c3ccncc23)n1` [Compound A6, [4-(1H-pyrrolo-[3,2-c]pyridin-3-yl)pyrimidin-2-yl]-o-tolyl-amine], the IC50 in test [4] was 1 to 10 µM.
